Reference: ChEMBL document CHEMBL4184331 (J Med Chem, 2018)

Experiments:
[1] = target: T1, Glucocorticoid receptor (Homo sapiens, UniProt P04150)
T1 sequence (P04150 whole entry): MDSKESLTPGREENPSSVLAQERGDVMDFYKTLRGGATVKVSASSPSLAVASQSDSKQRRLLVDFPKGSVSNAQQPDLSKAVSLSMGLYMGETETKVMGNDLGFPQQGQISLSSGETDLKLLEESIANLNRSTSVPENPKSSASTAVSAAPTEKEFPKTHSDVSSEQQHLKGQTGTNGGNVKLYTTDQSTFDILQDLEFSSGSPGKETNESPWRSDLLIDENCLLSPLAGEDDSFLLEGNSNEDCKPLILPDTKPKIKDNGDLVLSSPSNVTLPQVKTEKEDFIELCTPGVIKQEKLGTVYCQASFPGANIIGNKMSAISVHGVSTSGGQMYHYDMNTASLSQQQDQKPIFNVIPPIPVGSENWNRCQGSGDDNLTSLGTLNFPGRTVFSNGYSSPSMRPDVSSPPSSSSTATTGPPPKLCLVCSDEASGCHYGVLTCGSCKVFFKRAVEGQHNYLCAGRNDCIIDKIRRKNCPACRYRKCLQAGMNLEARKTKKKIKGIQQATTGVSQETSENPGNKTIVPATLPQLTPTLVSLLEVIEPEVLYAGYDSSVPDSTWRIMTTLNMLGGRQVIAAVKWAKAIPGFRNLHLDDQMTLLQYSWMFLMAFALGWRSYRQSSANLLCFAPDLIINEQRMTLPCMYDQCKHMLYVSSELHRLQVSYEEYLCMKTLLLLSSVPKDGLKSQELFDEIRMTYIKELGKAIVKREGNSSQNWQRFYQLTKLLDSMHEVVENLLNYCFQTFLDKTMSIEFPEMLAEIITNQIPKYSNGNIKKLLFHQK
Description: Induction of nuclear translocation of human recombinant ProLabel-tagged glucocorticoid receptor expressed in CHO-K1 cells after 3 hrs by luminescence method

[2] = system: RAW264.7; assay: cells; conditions: Mus musculus
Description: Antiinflammatory activity in mouse RAW264.7 cells assessed as inhibition of LPS-induced nitric oxide release preincubated for 15 mins followed by LPS challenge measured after 18 hrs by Griess assay

[3] = physchem
Description: Dissociation constant, pKa of the compound

[4] = target: T1, Glucocorticoid receptor; assay: biochemical
Description: Displacement of [3H]dexamethasone from human recombinant glucocorticoid receptor expressed in insect cells after 24 hrs by scintillation proximity assay

[5] = target: T2, Mineralocorticoid receptor (Homo sapiens, UniProt P08235)
T2 sequence (P08235 whole entry): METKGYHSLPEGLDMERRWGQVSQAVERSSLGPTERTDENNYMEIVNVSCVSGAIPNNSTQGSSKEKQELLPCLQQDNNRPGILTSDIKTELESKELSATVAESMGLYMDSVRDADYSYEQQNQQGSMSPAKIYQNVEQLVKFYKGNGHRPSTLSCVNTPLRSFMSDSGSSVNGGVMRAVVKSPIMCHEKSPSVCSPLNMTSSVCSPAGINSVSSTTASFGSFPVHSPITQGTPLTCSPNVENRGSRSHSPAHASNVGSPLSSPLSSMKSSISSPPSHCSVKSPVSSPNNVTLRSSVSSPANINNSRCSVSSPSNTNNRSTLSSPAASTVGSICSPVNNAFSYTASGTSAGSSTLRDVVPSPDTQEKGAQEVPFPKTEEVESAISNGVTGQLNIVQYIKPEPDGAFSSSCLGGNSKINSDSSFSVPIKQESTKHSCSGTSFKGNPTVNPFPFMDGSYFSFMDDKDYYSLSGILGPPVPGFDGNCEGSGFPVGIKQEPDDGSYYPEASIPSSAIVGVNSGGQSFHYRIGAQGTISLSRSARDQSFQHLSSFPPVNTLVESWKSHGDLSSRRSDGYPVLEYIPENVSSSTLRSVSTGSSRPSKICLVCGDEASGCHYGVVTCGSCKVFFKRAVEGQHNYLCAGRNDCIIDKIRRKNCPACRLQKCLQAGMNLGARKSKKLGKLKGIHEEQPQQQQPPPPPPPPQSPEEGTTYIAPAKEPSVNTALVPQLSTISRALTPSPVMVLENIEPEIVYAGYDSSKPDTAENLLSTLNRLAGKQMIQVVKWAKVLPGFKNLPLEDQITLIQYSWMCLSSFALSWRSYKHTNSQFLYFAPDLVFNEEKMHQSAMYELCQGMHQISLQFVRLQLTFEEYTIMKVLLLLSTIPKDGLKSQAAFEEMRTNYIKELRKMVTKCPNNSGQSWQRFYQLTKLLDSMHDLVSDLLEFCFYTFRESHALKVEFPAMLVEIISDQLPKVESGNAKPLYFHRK
Description: Induction of nuclear translocation of human recombinant ProLabel-tagged mineralocorticoid receptor expressed in CHO-K1 cells after 3 hrs by luminescence method

[6] = Cmax in Sprague-Dawley rat plasma at 1 umol/kg, it by HPLC-MS/MS method; format: ADME, cell-free; set-up: dose 1 umol/kg; conditions: inhaled or intranasal
[7] = Cmax in Sprague-Dawley rat lung at 1 umol/kg, it by HPLC-MS/MS method; format: ADME, tissue-based; set-up: dose 1 umol/kg; conditions: in vivo, inhaled_or_intranasal
[8] = AUClast in Sprague-Dawley rat plasma at 1 umol/kg, it by HPLC-MS/MS method; format: ADME, cell-free; conditions: inhaled or intranasal
[9] = AUClast in Sprague-Dawley rat lung at 1 umol/kg, it by HPLC-MS/MS method; format: ADME, tissue-based; conditions: in vivo, inhaled_or_intranasal
[10] = MRTlast in Sprague-Dawley rat plasma at 1 umol/kg, it by HPLC-MS/MS method; format: ADME, cell-free; conditions: inhaled or intranasal
[11] = MRTlast in Sprague-Dawley rat lung at 1 umol/kg, it by HPLC-MS/MS method; format: ADME, tissue-based; conditions: inhaled or intranasal

Row | SMILES | EC50 [1] | IC50 [2] | pKa [3] | Ki [4] | other results
1 | C[C@]12C=CC(=O)C=C1[C@@H](F)C[C@H]1[C@@H]3C[C@H]4CN(c5ccc(Cl)cc5)C[C@@]4(C(=O)CO)[C@@]3(C)C[C@H](O)[C@@]12F | 8.5 nM | 0.66 nM | 4.42 | 0.67 nM | 
2 | C[C@]12C=CC(=O)C=C1[C@@H](F)C[C@H]1[C@@H]3C[C@H]4CN(c5cccc(Cl)c5)C[C@@]4(C(=O)CO)[C@@]3(C)C[C@H](O)[C@@]12F | 5.8 nM | 0.4 nM | 4.06 | 0.52 nM | 
3 | C[C@]12C=CC(=O)C=C1[C@@H](F)C[C@H]1[C@@H]3C[C@H]4CN(Cc5ccc(Cl)cc5)C[C@@]4(C(=O)CO)[C@@]3(C)C[C@H](O)[C@@]12F | 1.3 nM | 0.25 nM | 6.72 |  | 
4 | CN1C[C@@H]2C[C@H]3[C@@H]4C[C@H](F)C5=CC(=O)C=C[C@]5(C)[C@@]4(F)[C@@H](O)C[C@]3(C)[C@]2(C(=O)CO)C1 | 54.9 nM |  | 7.91 |  | 
5 | C[C@]12C=CC(=O)C=C1[C@@H](F)C[C@H]1[C@@H]3C[C@H]4CN(Cc5ccccc5)C[C@@]4(C(=O)CO)[C@@]3(C)C[C@H](O)[C@@]12F | 1.7 nM | 0.15 nM | 6.96 | 0.66 nM | 
6 | C[C@]12C=CC(=O)C=C1[C@@H](F)C[C@H]1[C@@H]3C[C@H]4CN(Cc5ccccc5)C[C@@]4(C(=O)NCc4ccccc4)[C@@]3(C)C[C@H](O)[C@@]12F | 50 nM |  | 7.05 | 9.8 nM | 
7 | C[C@]12C=CC(=O)C=C1[C@@H](F)C[C@H]1[C@@H]3C[C@H]4CN(CC5CC5)C[C@@]4(C(=O)CO)[C@@]3(C)C[C@H](O)[C@@]12F | 15.2 nM |  | 7.83 |  | 
8 | CC(C)CCN1C[C@@H]2C[C@H]3[C@@H]4C[C@H](F)C5=CC(=O)C=C[C@]5(C)[C@@]4(F)[C@@H](O)C[C@]3(C)[C@]2(C(=O)SCF)C1 | 57 nM |  |  | 4.8 nM | EC50 [5]: > 3000 nM
9 | C[C@]12C=CC(=O)C=C1[C@@H](F)C[C@H]1[C@@H]3C[C@H]4CN(S(=O)(=O)c5cccs5)C[C@@]4(C(=O)CO)[C@@]3(C)C[C@H](O)[C@@]12F | 7.4 nM | 3.68 nM |  | 0.66 nM | 
10 | C[C@]12C=CC(=O)C=C1[C@@H](F)C[C@H]1[C@@H]3C[C@H]4CN(Cc5ccccc5)C[C@@]4(C(=O)CF)[C@@]3(C)C[C@H](O)[C@@]12F | 3.4 nM |  | 6.87 | 0.52 nM | 
11 | C[C@]12C=CC(=O)C=C1[C@@H](F)C[C@H]1[C@@H]3C[C@H]4CN(Cc5ccc(CSc6ccc(O)cc6)cc5)C[C@@]4(C(=O)CO)[C@@]3(C)C[C@H](O)[C@@]12F | 2.1 nM | 0.44 nM | 6.95 | 0.62 nM | EC50 [5]: 1.6 nM
12 | Cc1ccc(CN2C[C@@H]3C[C@H]4[C@@H]5C[C@H](F)C6=CC(=O)C=C[C@]6(C)[C@@]5(F)[C@@H](O)C[C@]4(C)[C@]3(C(=O)CO)C2)cc1 | 8.4 nM | 0.16 nM | 7.11 | 0.52 nM | 
13 | C[C@]12C=CC(=O)C=C1[C@@H](F)C[C@H]1[C@@H]3C[C@H]4CN(Cc5cccnc5)C[C@@]4(C(=O)CO)[C@@]3(C)C[C@H](O)[C@@]12F | 63.9 nM |  | 4.11 |  | 
14 | CC(=O)[C@@]12CN(Cc3cccc(Cl)c3)C[C@@H]1C[C@H]1[C@@H]3C[C@H](F)C4=CC(=O)C=C[C@]4(C)[C@@]3(F)[C@@H](O)C[C@@]12C | 7.7 nM | 1.4 nM | 6.9 | 0.57 nM | 
15 | C[C@]12C=CC(=O)C=C1[C@@H](F)C[C@H]1[C@@H]3C[C@H]4CN(C(=O)OCc5ccccc5)C[C@@]4(C(=O)CO)[C@@]3(C)C[C@H](O)[C@@]12F | 44.1 nM |  |  | 0.66 nM | 
16 | C[C@]12C=CC(=O)C=C1[C@@H](F)C[C@H]1[C@@H]3C[C@H]4CN(C(=O)c5ccccc5)C[C@@]4(C(=O)CO)[C@@]3(C)C[C@H](O)[C@@]12F | 248 nM |  |  |  | 
17 | CN(C)C(=O)[C@@]12CN(Cc3ccccc3)C[C@@H]1C[C@H]1[C@@H]3C[C@H](F)C4=CC(=O)C=C[C@]4(C)[C@@]3(F)[C@@H](O)C[C@@]12C | 40.3 nM |  | 7.3 | 1.1 nM | EC50 [5]: > 3000 nM
18 | C[C@]12C=CC(=O)C=C1[C@@H](F)C[C@H]1[C@@H]3C[C@H]4CN(Cc5ccc6ccccc6n5)C[C@@]4(C(=O)CO)[C@@]3(C)C[C@H](O)[C@@]12F | 31.2 nM | 11.9 nM | 3.42 | 0.71 nM | 
19 | C[C@]12C=CC(=O)C=C1[C@@H](F)C[C@H]1[C@@H]3C[C@H]4CN(c5ccccc5)C[C@@]4(C(=O)CO)[C@@]3(C)C[C@H](O)[C@@]12F | 1.3 nM | 0.34 nM | 8.82 | 0.39 nM | 
20 | CC(C)CCN1C[C@@H]2C[C@H]3[C@@H]4C[C@H](F)C5=CC(=O)C=C[C@]5(C)[C@@]4(F)[C@@H](O)C[C@]3(C)[C@]2(C(=O)CO)C1 | 3.4 nM | 0.22 nM | 7.98 | 1.9 nM | 
21 | C[C@]12C=CC(=O)C=C1[C@@H](F)C[C@H]1[C@@H]3C[C@H]4CN(c5ccccc5)C[C@@]4(C(=O)CF)[C@@]3(C)C[C@H](O)[C@@]12F | 3.2 nM | 1.38 nM | 8.74 | 0.52 nM | 
22 | C[C@]12C=CC(=O)C=C1[C@@H](F)C[C@H]1[C@@H]3C[C@H]4CN(Cc5cccc(Cl)c5)C[C@@]4(C(=O)SCF)[C@@]3(C)C[C@H](O)[C@@]12F | 45 nM |  |  |  | EC50 [5]: > 3000 nM
23 | C[C@]12C=CC(=O)C=C1[C@@H](F)C[C@H]1[C@@H]3C[C@H]4CN(Cc5cccc(Cl)c5)C[C@@]4(C(=O)OCF)[C@@]3(C)C[C@H](O)[C@@]12F | 20.8 nM |  | 6.58 | 0.57 nM | 
24 | COC(=O)[C@@]12CN(Cc3ccccc3)C[C@@H]1C[C@H]1[C@@H]3C[C@H](F)C4=CC(=O)C=C[C@]4(C)[C@@]3(F)[C@@H](O)C[C@@]12C | 5.7 nM |  | 7.12 | 0.71 nM | 
25 | C[C@]12C=CC(=O)C=C1[C@@H](F)C[C@H]1[C@@H]3C[C@H]4CN(Cc5cccc(Cl)c5)C[C@@]4(C(=O)CO)[C@@]3(C)C[C@H](O)[C@@]12F.Cl |  |  |  |  | Cmax [6]: 90 nM; Cmax [7]: 9.03 nmol/g; AUC(0-t) [8]: 0.12 µM·h; AUClast [9]: 9 nmol·h/g; MRT last [10]: 1.1 h; MRT last [11]: 6.4 h
26 | Cc1cccc(CN2C[C@@H]3C[C@H]4[C@@H]5C[C@H](F)C6=CC(=O)C=C[C@]6(C)[C@@]5(F)[C@@H](O)C[C@]4(C)[C@]3(C(=O)CO)C2)c1 | 11.3 nM | 0.3 nM | 7.27 | 0.52 nM | 
